{"source": "patent US6537988B2", "about": "“Synergistic methods and compositions for treating cancer” (Bristol-Myers Squibb Company, priority 2000, dated 2003)", "key": {"[1]": {"test_system": "HCTVM46 human colon carcinoma", "experiment": "Multidrug-resistant HCT/VM46 xenograft (FIGS. 13, 14)", "settings": "single agents or Compound 1 followed 24 hr later with Compound 2", "method": "(§1) Tumor response was determined by measurement of tumors with a caliper twice a week until the tumors reached a predetermined “target” size of 0.5 or 1.0 g. Tumor weights (mg) were estimated from the formula:\n(§2) Tumor response end-point was expressed in terms of tumor growth delay (T-C value), defined as the difference in time (days) required for the treated tumors (T) to reach a predetermined target size compared to those of the control group (C).\n(§3) A tumor is defined as “cured” when there is no detectable disease at the time of study termination (Day >75 days post-tumor implantation); the interval between study termination and the end of drug treatment always exceeded 10 times the volume doubling time of any particular tumor type."}, "[2]": {"experiment": "Maximum tolerated dose / regimen in tumor-bearing mice", "format": "in vivo, nude mice", "description": "The maximum tolerated dose (MTD) is defined as the dose level immediately above which excessive toxicity (i.e. more than one death) occurred. […] Activity is described at the OD."}, "[3]": {"test_system": "HCT-116 human colon carcinoma cells", "experiment": "Clonogenic cell colony-formation assay, stationary vs log phase cells", "settings": "for cytotoxicity against non-proliferating stationary cells: HCT-116, paclitaxel at concentrations as high as 162 nM; for fold less sensitive: cells in exponential growth (Day 2) vs stationary phase (Day 8) / fold more sensitive: cells in exponential growth (Day 2) vs stationary phase (Day 8): HCT-116 in vitro, figure legends", "method": "(§4) At the end of a 16 h drug exposure, monolayer cell cultures were dissociated by exposing the cells to 0.05% trypsin for 5 min at 37° C. Cells were resuspended in complete media (containing 10% FBS), counted with a Coulter Channelyzer, diluted and plated with 5 replicates per dilution, into plastic tissue culture petri dishes. The cells were incubated in a humidified atmosphere for 10 days at 37° C. Cell colonies were stained with crystal violet and those with >50 cells per colony were scored."}, "[4]": {"test_system": "advanced HCT116 human colon carcinoma", "settings": "dose 30 mg/kg/inj; IV, Q2D × 5", "method": "as §1, §2"}, "[5]": {"test_system": "A2780 human ovarian cancer cells", "experiment": "Colony formation of A2780 cells, CDK inhibitor plus Compound 2", "format": "cell-based", "settings": "1.5 μM, 4 hour treatment"}, "[6]": {"test_system": "HCT-116 human colon carcinoma cells", "method": "as §4"}, "[7]": {"test_system": "HT-29 human colon carcinoma", "experiment": "Advanced HT-29 xenograft, gemcitabine plus Compound 2", "format": "in vivo, nude mice", "description": "The agent primarily kills cells undergoing DNA synthesis (S-phase) and also blocks the progression of cells through the G1/S-phase boundary."}, "[8]": {"test_system": "advance HCT116 human colon carcinoma", "settings": "dose 20 mg/kg/inj, IV, Q7D × 4", "method": "Paclitaxel was administered IV at 20 mg/kg/inj, Q7D×4.\nas §1, §2, §3"}, "[9]": {"test_system": "Her-1 activated SAL-2 cancer cell line", "format": "cell-based", "settings": "20 hours exposure", "method": "FIG. 18A: Clonogenic survival of the SAL-2 cell line following exposure to paclitaxel for 20 hours at the indicated concentrations."}, "[10]": {"test_system": "HCT116 human colon carcinoma", "settings": "Compound 2 125 mpk 24 h iv infusion; paclitaxel 24 mg/kg iv; alone or combined", "method": "as §1, §2"}, "[11]": {"test_system": "MCF-7 estrogen-dependent human breast carcinoma", "experiment": "MCF-7 xenograft, tamoxifen plus Compound 2", "format": "in vivo, nude mice", "settings": "tamoxifen 40 mpk PO Q2D×14, Compound 2 po 100 mpk qd×10, two courses", "procedure": "Tamoxifen was administered PO, Q2D×14.\nThe majority of human breast cancers require estrogen for growth and tumor progression (estrogen-dependent). […] In order to assess the efficacy of the combined anti-cancer agents of the invention in a human breast cancer model, MCF-7 xenografts were grown in nude mice and treated as described herein."}, "[12]": {"settings": "IC90 Log / IC90 Stationary, HCT116"}, "[13]": {"settings": "read-out: IC90 Log (converted), log phase (proliferating) HCT116 cells, 16 h drug exposure"}, "[14]": {"settings": "read-out: IC90 Stationary, stationary phase (non-proliferating, Day 8) HCT116 cells, 16 h drug exposure"}, "[15]": {"settings": "read-out: IC90 Log (converted), log phase (proliferating) HCT116 cells"}, "[16]": {"settings": "read-out: IC90 Stationary, stationary phase (non-proliferating) HCT116 cells"}}, "note": "Entries after “also recorded” stand apart in the source; their conditions may differ. Like-named read-outs stand apart in the source and are kept apart here."}
{"smiles": "C/C(=C\\c1csc(C)n1)[C@@H]1C[C@@H]2O[C@]2(C)CCC[C@H](C)[C@H](O)[C@@H](C)C(=O)C(C)(C)[C@@H](O)CC(=O)N1", "note": "(relative stereo) [Compound 1, [1S-[1R*,3R*(E),7R*,10S*,11R*,12R*,16S*]]-7,11-dihydroxy-8,8,10,12,16-pentamethyl-3-[1-methyl-2-(2-methyl-4-thiazolyl)ethenyl]-4-aza-17-oxabicyclo[14.1.0]heptadecane-5,9-dione]", "values": [{"measurement": "tumor cure", "setting": "[1]", "result": "did not induce tumor cure"}, {"measurement": "log cell kill", "setting": "[1]; maximum tolerated regimens, q4d×3", "result": 1.6, "unit": "LCK"}, {"measurement": "maximum tolerated regimen", "setting": "[2]; HCTVM46 study FIG. 13, single agents, q4d×3", "result": 15, "unit": "mg/kg"}, {"measurement": "maximum tolerated regimen", "setting": "[2]; HCTVM46 study FIG. 14, Compound 1 iv q4d×3, Compound 2 ip q4d×3, single agents", "result": 10, "unit": "mg/kg"}]}
{"smiles": "O=c1[nH]cc(F)c(=O)[nH]1", "note": "[5-Fluorouracil, 5-fluorouracil]", "values": [{"measurement": "cytotoxicity against non-proliferating stationary cells", "setting": "[3]", "result": "essentially ineffective"}, {"measurement": "Non-proliferative cells selectivity ratio (fold)", "setting": "[3]; [12]", "result": "<0.03", "unit": "fold"}, {"measurement": "IC90 Log", "setting": "[3]; log phase HCT116 cells", "result": ">162", "unit": "μg/ml"}, {"measurement": "IC90 Stationary", "setting": "[3]; stationary phase HCT116 cells", "result": 4.6, "unit": "µg/mL"}]}
{"smiles": "CCc1c2c(nc3ccc(OC(=O)N4CCC(N5CCCCC5)CC4)cc13)-c1cc3c(c(=O)n1C2)COC(=O)[C@]3(O)CC", "note": "[CPT-11]", "values": [{"measurement": "Tumor Response CR (%)", "setting": "[4]", "result": 0, "unit": "%"}, {"measurement": "Tumor Response LCK", "setting": "[4]", "result": 1.5}, {"measurement": "Tumor Response PR (%)", "setting": "[4]", "result": 50, "unit": "%"}, {"measurement": "MTD", "setting": "[2]; CPT-11 IV (Q2D × 5), HCT116 study", "result": "~30", "unit": "mg/kg/inj"}]}
{"smiles": "CC(O)(CS(=O)(=O)c1ccc(F)cc1)C(=O)Nc1ccc(C#N)c(C(F)(F)F)c1", "note": "(centres unmarked) [Casodex®, bicalutamide]", "values": [{"measurement": "maximum tolerated doses and regimens", "setting": "[2]; Pca-2b-AI study, Compound 2 po q1D×10, Casodex® po q1D×4", "result": 150, "unit": "mpk"}]}
{"smiles": "CCCCS(=O)(=O)N1Cc2cc(C#N)ccc2N(Cc2c[nH]cn2)C[C@H]1Cc1ccccc1", "note": "[Compound 3, (R)-4-(butylsulfonyl)-7-cyano-2,3,4,5-tetrahydro-1-(1H-imidazol-4-ylmethyl)-3-(phenylmethyl)-1H-1,4-benzodiazepine]", "values": [{"measurement": "Non-proliferative cells selectivity ratio (fold)", "setting": "[3]; [12]", "result": 181.0, "unit": "fold"}, {"measurement": "IC90", "setting": "[3]; [13]", "result": 65000, "unit": "nM"}, {"measurement": "IC90", "setting": "[3]; [14]", "result": 360, "unit": "nM"}]}
{"smiles": "COCCCS(=O)(=O)N1Cc2cc(C#N)ccc2N(Cc2c[nH]cn2)C[C@H]1Cc1ccccc1", "note": "[Compound 4, (R)-4-(3-methoxypropylsulfonyl)-7-cyano-2,3,4,5-tetrahydro-1-(1H-imidazol-4-ylmethyl)-3-(phenylmethyl)-1H-1,4-benzodiazepine]", "values": [{"measurement": "fold less sensitive: cells in exponential growth (Day 2) vs stationary phase (Day 8)", "setting": "[3]", "result": "~91.2", "unit": "fold"}, {"measurement": "Non-proliferative cells selectivity ratio (fold)", "setting": "[3]; [12]", "result": 86.9, "unit": "fold"}, {"measurement": "IC90", "setting": "[3]; [13]", "result": 91200, "unit": "nM"}, {"measurement": "IC90", "setting": "[3]; [14]", "result": 1050, "unit": "nM"}]}
{"smiles": "N#Cc1ccc2c(c1)CN(S(=O)(=O)c1ccc(Br)s1)[C@H](Cc1ccccc1)CN2Cc1c[nH]cn1", "note": "[Compound 5, (R)-4-[(5-bromo-2-thienyl)sulfonyl]-7-cyano-2,3,4,5-tetrahydro-1-(1H-imidazol-4-ylmethyl)-3-(phenylmethyl)-1H-1,4-benzodiazepine]", "values": [{"measurement": "Non-proliferative cells selectivity ratio (fold)", "setting": "[3]; [12]", "result": 78.4, "unit": "fold"}, {"measurement": "IC90", "setting": "[3]; [13]", "result": 84700, "unit": "nM"}, {"measurement": "IC90", "setting": "[3]; [14]", "result": 1080, "unit": "nM"}]}
{"smiles": "N#Cc1ccc2c(c1)CN(S(=O)(=O)N1CCCCC1)[C@H](Cc1ccccc1)CN2Cc1c[nH]cn1", "note": "[Compound 6, (R)-7-cyano-2,3,4,5-tetrahydro-1-(1H-imidazol-4-ylmethyl)-3-(phenylmethyl)-4-(1-piperidinylsulfonyl)-1H-1,4-benzodiazepine]", "values": [{"measurement": "fold less sensitive: cells in exponential growth (Day 2) vs stationary phase (Day 8)", "setting": "[3]", "result": "~67", "unit": "fold"}, {"measurement": "Non-proliferative cells selectivity ratio (fold)", "setting": "[3]; [12]", "result": 64.2, "unit": "fold"}, {"measurement": "IC90", "setting": "[3]; [13]", "result": 66800, "unit": "nM"}, {"measurement": "IC90", "setting": "[3]; [14]", "result": 1040, "unit": "nM"}]}
{"smiles": "COc1ccc(S(=O)(=O)N2Cc3cc(C#N)ccc3N(Cc3c[nH]cn3)C[C@H]2Cc2ccccc2)cc1", "note": "[Compound 7, (R)-7-cyano-2,3,4,5-tetrahydro-1-(1H-imidazol-4-ylmethyl)-4-[(4-methoxyphenyl)sulfonyl]-3-(phenylmethyl)-1H-1,4-benzodiazepine]", "values": [{"measurement": "Non-proliferative cells selectivity ratio (fold)", "setting": "[3]; [12]", "result": 2.7, "unit": "fold"}, {"measurement": "IC90", "setting": "[3]; [13]", "result": 26000, "unit": "nM"}, {"measurement": "IC90", "setting": "[3]; [14]", "result": 9600, "unit": "nM"}]}
{"smiles": "CC(C)(C)c1cnc(CSc2cnc(NC(=O)C3CCNCC3)s2)o1", "note": "[Compound 9, N-[5-[[[5-(1,1-dimethylethyl)-2-oxazolyl]methyl]thio]-2-thiazolyl]-4-piperidinecarboxamide]", "values": [{"measurement": "effect of single agent", "setting": "[5]", "result": "no effect dose"}]}
{"smiles": "C/C(=C\\c1csc(C)n1)[C@@H]1C[C@@H]2O[C@]2(C)CCC[C@H](C)[C@H](O)[C@@H](C)C(=O)C(C)(C)[C@@H](O)CC(=O)O1", "note": "[Epothilone B, epothilone B]", "values": [{"measurement": "cytotoxicity against non-proliferating stationary cells", "setting": "[6]", "result": "essentially ineffective"}, {"measurement": "fold more sensitive: cells in exponential growth (Day 2) vs stationary phase (Day 8)", "setting": "[3]", "result": "> 83", "unit": "fold"}, {"measurement": "Non-proliferative cells selectivity ratio (fold)", "setting": "[3]; [12]", "result": "<0.01", "unit": "fold"}, {"measurement": "IC90", "setting": "[3]; [15]", "result": 1.3, "unit": "nM"}, {"measurement": "IC90", "setting": "[3]; [16]", "result": "> 108", "unit": "nM"}]}
{"smiles": "Nc1ccn([C@@H]2O[C@H](CO)[C@@H](O)C2(F)F)c(=O)n1", "note": "[Gemcitabine]", "values": [{"measurement": "MTD", "setting": "[2]; gemcitabine IV, Q2D×4, HT-29 study", "result": 36, "unit": "mg/kg/inj"}, {"measurement": "response rate", "setting": "[7]; single agent gemcitabine 6 mg/kg/inj (so in the source)", "result": 25, "unit": "%"}, {"measurement": "response rate", "setting": "[7]; single agent gemcitabine 24 mg/kg/inj", "result": 0, "unit": "%"}]}
{"smiles": "CC(=O)O[C@H]1C(=O)[C@@]2(C)[C@H]([C@H](OC(=O)c3ccccc3)[C@]3(O)C[C@H](OC(=O)[C@H](O)[C@@H](NC(=O)c4ccccc4)c4ccccc4)C(C)=C1C3(C)C)[C@]1(OC(C)=O)CO[C@@H]1C[C@@H]2O", "note": "[Paclitaxel, paclitaxel]", "values": [{"measurement": "Tumor Response CR (%)", "setting": "[8]", "result": 0, "unit": "%"}, {"measurement": "Tumor Response LCK", "setting": "[8]", "result": 2.5}, {"measurement": "Tumor Response PR (%)", "setting": "[8]", "result": 20, "unit": "%"}, {"measurement": "Tumor Response Cures (%)", "setting": "[8]; Day 77", "result": 0, "unit": "%"}, {"measurement": "sensitivity of exponentially growing SAL2 cells to single agent", "setting": "[9]", "result": "relatively resistant"}, {"measurement": "maximum tolerated regimen", "setting": "[2]; Pat-7 study, paclitaxel iv q3d×3, Compound 2 ip q3d×3", "result": 36, "unit": "mg/kg"}, {"measurement": "log cell kill", "setting": "[10]", "result": 0.6, "unit": "LCK"}, {"measurement": "Non-proliferative cells selectivity ratio (fold)", "setting": "[3]", "result": "<0.1", "unit": "fold"}, {"measurement": "cytotoxicity against non-proliferating stationary cells", "setting": "[3]", "result": "essentially ineffective; also recorded: completely non-toxic"}, {"measurement": "fold more sensitive: cells in exponential growth (Day 2) vs stationary phase (Day 8)", "setting": "[3]", "result": "> 10", "unit": "fold"}, {"measurement": "IC90", "setting": "[3]; [15]", "result": 17.8, "unit": "nM"}, {"measurement": "IC90", "setting": "[3]; [16]", "result": "> 162", "unit": "nM"}]}
{"smiles": "CC/C(=C(\\c1ccccc1)c1ccc(OCCN(C)C)cc1)c1ccccc1", "note": "[Tamoxifen]", "values": [{"measurement": "tumor remission / cures", "setting": "[11]", "result": "no cures were observed"}, {"measurement": "effect on tumor growth", "setting": "[11]; alone or combined", "result": "markedly more active"}]}
